{"source": "patent US20110288017A1", "about": "“APO-LIPOPROTEIN PROPEPTIDE” (priority 2010, published 2011)", "key": {"Zucker rat liver cells": {"system": "Zucker rat liver cells", "assay": "Confocal microscopy of liver cells treated with fluorescently labeled propeptide", "format": "cell-based", "excerpt": "(§1) A peptide with the amino acid sequence WEFWQQ (corresponding to the rat sequence of the Apo AI propeptide) containing a fluorescein group attached to the N-terminus was custom synthesized by Cambridge biochemical reagents. Synthetic version of the peptide was made using standard Merrifield peptide synthesis techniques (http://en.wikipedia.org/wiki/Peptide_synthesis). Other standard techniques that would apply here would be the use of bacteria to synthesize large quantities of the peptide (http://en.wikipedia.org/wiki/Recombinant_DNA).\n(§2) Liver tissue was obtained from lean Zucker rats and placed in liver digest media. The liver digest media was then drained into a conical vial and the liver was placed in another sterile beaker of hepatozyme wash media. Clean gauze was placed at the opening to the conical vials and the liver was washed with the hepatozyme wash media yet again. This process filtered the liver cells into the conical vials. The cells were centrifuged for five minutes at 6000 rpm. The cells were washed thoroughly with hepatozyme wash media and then resuspended in 5% Fetal Bovine Serum, 2 mM glutamine hepatozyme wash medium and pipetted into collagen wells. The collagen well plates were incubated at 37° Celsius and 5% CO2. After 19 hours, the media was replaced with clean, fresh Hepatozyme-SFM (3 mL). The media was further supplemented with L-glutamine (2 mM) after 23 hours. […]"}, "[1]": {"assay": "Modified Western blot: native PAGE gel of liver lysate incubated with fluorescent propeptide", "format": "binding, rat", "conditions": "FIG. 4", "excerpt": "(§3) Rat liver tissue from an old (23 months) rat and mouse liver tissue from a young mouse (3 months) was obtained from Dr. Eric R. Blough (Biology department, Marshall University, Huntington, W. Va.). 0.104 g of liver tissue from the young mouse and 0.20 g of tissue from the old rat were placed in separate microcentrifuge tubes and washed thoroughly with phosphate buffered saline (“PBS”).\n(§4) Rat liver tissue was lysed using CellLytic-MT lysis buffer (Sigma) following the procedure provided from Sigma. Along with the lysis buffer, a protease inhibitor cocktail containing pepstatin, aprotinin, and leupeptin was added. The samples were then centrifuged for 15 minutes at 14,000 rpm. Supernatant containing the cellular proteins was pulled from the samples and centrifuged for another 10 minutes.\n(§5) Proteins from the lysate were separated by Native PAGE on a 12% polyacrylamide gel. The gel was run using Tris/Glycine running buffer for one hour at 200 V.\n(§6) After protein separation by PAGE was complete, a picture of the gel was taken using an ultraviolet (“UV”) lamp to excite any fluorescent molecules. The UV exposure time was 20 s. The gel was then incubated with the fluorescent labeled Apo AI propeptide in Tris buffered saline with 5% Tween (“TBST”) overnight on a rocking platform. Another picture of the gel was taken using the same UV exposure time as the initial picture. […]"}, "oxysterol receptor LXRβ": {"target": "T1, oxysterol receptor LXRβ (Rattus norvegicus, UniProt Q62755)", "T1 construct": "Liver tissue from a lean Zucker rat was lysed; from tissue; host or cells: liver of lean Zucker rat (lysate, CellLytic-MT buffer)", "T1 sequence (Q62755 1-446)": "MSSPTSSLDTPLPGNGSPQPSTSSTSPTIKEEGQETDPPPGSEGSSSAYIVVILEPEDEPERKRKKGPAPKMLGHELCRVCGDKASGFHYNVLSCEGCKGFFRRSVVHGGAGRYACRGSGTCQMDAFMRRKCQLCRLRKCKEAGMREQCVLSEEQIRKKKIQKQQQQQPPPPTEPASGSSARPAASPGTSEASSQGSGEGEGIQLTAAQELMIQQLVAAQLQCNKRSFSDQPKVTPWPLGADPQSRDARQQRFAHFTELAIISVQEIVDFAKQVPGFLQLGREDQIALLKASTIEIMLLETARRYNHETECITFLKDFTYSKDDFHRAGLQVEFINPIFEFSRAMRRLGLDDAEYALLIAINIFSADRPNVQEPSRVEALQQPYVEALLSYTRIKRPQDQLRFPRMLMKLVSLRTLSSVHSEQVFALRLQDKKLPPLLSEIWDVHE", "assay": "Peptide bead pull-down from liver lysate, SDS-PAGE, MALDI-TOF peptide mass fingerprint", "format": "binding", "conditions": "lean Zucker rat liver lysate; peptide attached to benzyloxybenzylbromide resin at N-terminus; Mascot search; FIG. 6", "excerpt": "The Apo AI propeptide was attached to benzyloxybenzylbromide resin at its N-terminus. Rat liver tissue was lysed using CellLytic-MT lysis buffer using the procedure outlined above. This buffer may be purchased from Sigma-Aldrich Corp. (“Sigma”) (St. Louis, Mo.). […] The protein lysate was removed and added to the peptide modified beads. The solution was shaken for one hour; the supernatant was then removed leaving only the resin beads. The resin beads were washed three times with PBS, and then 30 μl of gel loading solution was added to the resin beads. The solution was heated at 100° C. for five minutes and then loaded onto a polyacrylamide gel (4-20% polyacrylamide) and separated by SDS-PAGE.\nProtein bands of interest were cut from the gel and digested with trypsin overnight following the procedure used at University of California, San Francisco (http://donatello.ucsf.edu/ingel.html). The peptide fragments were analyzed on a Bruker MALDI-TOF mass spectrometer which provided the peptide fragment molecular weight maps of the proteins for protein identification.\nAnother set of experiments were designed to determine the identity of any proteins capable of binding to the Apo AI propeptide. The Apo AI propeptide, WEFWQQ, was attached to benzyloxybenzylbromide resin beads at its N-terminus. […]"}, "[2]": {"assay": "Modified Western blot: native PAGE gel of liver lysate incubated with fluorescent propeptide", "format": "binding", "conditions": "young mouse (3 months) liver lysate, FIG. 5 Arrow 1", "excerpt": "as §3, §4, §5, §6"}, "human epithelial cells": {"system": "human epithelial cells", "assay": "Confocal microscopy of epithelial cells treated with fluorescently labeled propeptide", "format": "cell-based", "excerpt": "as §1, §2"}}}
{"substance": "WEFWQQ (PROPEP (1)..(6); listed as Rattus norvegicus)", "values": [{"measurement": "entry of the propeptide into cells and nucleus (confocal image)", "setting": "Zucker rat liver cells; Zucker rat liver cells, peptide labeled at N-terminus with fluorescein, FIG. 1", "result": "clearly entering the cells and entering the nucleus of the cells"}, {"measurement": "time to entry into cells after peptide application", "setting": "Zucker rat liver cells; liver cells, fluorescently labeled peptide", "result": "within seconds"}, {"measurement": "binding to a protein on the gel (new fluorescent band after incubation)", "setting": "[1]; old rat (23 months) liver lysate, overnight incubation", "result": "binding to a protein on the gel"}, {"measurement": "fluorescence of higher molecular weight band (possibly DNA) after peptide incubation", "setting": "[1]; old rat liver lysate", "result": "increase in the fluorescence intensity of a higher molecular weight band"}, {"measurement": "identity of the protein bound to the peptide beads (band at about 45 kDa)", "setting": "oxysterol receptor LXRβ", "result": "identified the protein as the oxysterol receptor LXRβ"}, {"measurement": "fluorescent band after incubation with the peptide", "setting": "[2]", "result": "same band as was seen in FIG. 4"}, {"measurement": "time to entry into cells after peptide application", "setting": "human epithelial cells", "result": "within seconds"}]}
